According to ChEMBL document CHEMBL3430912, “GSK Tres Cantos Anti-Kinetoplastid Screening (TCAKS) Data”:

Columns and labels:
Trypanosoma cruzi [1] = experiment: GSK_TCAKS: pIC50 Trypanosoma cruzi viability assay using beta-GAL activity. This assay was run at single shot at 5uM compound concentration per well. The biological reagents consisted of NIH-3T3 host cells and trypomastigotes parasitic cells; both cell types were set to a 3.3 * 10^5 cells/mL dilution in assay DMEM by means of a CASY cell counter device using a 60um capillary. 6 uL of the mixture were dispensed per well (about 1 * 10^3 host-cells and 1 * 10^3 parasites) with a Multidrop Combi dispenser. […] In all wells, the percentage of DMSO never exceeded 0.5%. Plates incubated for four days at 37C, 5% CO2. The substrate used for the assay fluorescence intensity (FLINT) readout was resorufin-beta-D-galactopiranoside (Sigma-Aldrich) at 5uM per well. It was diluted in PBS supplemented with the soft detergent Igepal (Fluka).; assay type: functional, organism-based, Mus musculus; settings: Tulahuen, NIH3T3
Trypanosoma cruzi [2] = experiment: (§1) GSK_TCAKS: pIC50 Trypanosoma cruzi Imaging: Infected Cells. […] Cells were then washed once with PBS before infection. T. cruzi trypomastigotes, collected at days 5 to 8 after infection from LLC-MK2 parasite infected cultures, were allowed to swim out for 4h at 37C from a centrifuged pellet (2,500 rpm/10 min/room temperature). Trypomastigotes were then collected and counted in a CASY Cell Counter. Trypomastigotes, in supplemented DMEM, were added to H9c2 cultures in a multiplicity of infection of 1 and incubated for 18 h. Cells were washed once with PBS before incubation of the infected H9c2 monolayer with trypsin (Life-Technologies) to detach cells from the flask. Cells were counted in a CASY Cell Counter using a 150 um capillary and their density set at 5 * 10^4 cells per mL in supplemented assay DMEM. Infected H9c2 were dispensed into 384-well poly-lysine coated assay plates at 50uL per well using a Multidrop Combi dispenser. After seeding them, the plates were incubated at 37C, 5% CO2 for 72h. Cultures were then fixed and stained by addition of 50 uL of a solution containing 8% formaldehyde and 4 uM DRAQ5 DNA dye (BioStatus, UK) per well. […] Five images were collected per well for reliable statistical analysis. Automated image analysis was performed with a script developed on Acapella High Content Imaging and Analysis Software (PerkinElmer). Output: percentage of infected cells per well as a second infection marker.; assay type: functional, organism-based, Rattus norvegicus; settings: H9c2, 4 h
Trypanosoma cruzi [3] = experiment: GSK_TCAKS: pIC50 Trypanosoma cruzi Imaging: Amastigotes/Cell. […] Cells were then washed once with PBS before infection. T. cruzi trypomastigotes, collected at days 5 to 8 after infection from LLC-MK2 parasite infected cultures, were allowed to swim out for 4h at 37C from a centrifuged pellet (2,500 rpm/10 min/room temperature). Trypomastigotes were then collected and counted in a CASY Cell Counter. Trypomastigotes, in supplemented DMEM, were added to H9c2 cultures in a multiplicity of infection of 1 and incubated for 18 h. Cells were washed once with PBS before incubation of the infected H9c2 monolayer with trypsin (Life-Technologies) to detach cells from the flask. Cells were counted in a CASY Cell Counter using a 150 um capillary and their density set at 5 * 10^4 cells per mL in supplemented assay DMEM. Infected H9c2 were dispensed into 384-well poly-lysine coated assay plates at 50uL per well using a Multidrop Combi dispenser. After seeding them, the plates were incubated at 37C, 5% CO2 for 72h. Cultures were then fixed and stained by addition of 50 uL of a solution containing 8% formaldehyde and 4 uM DRAQ5 DNA dye (BioStatus, UK) per well. […] Five images were collected per well for reliable statistical analysis. Automated image analysis was performed with a script developed on Acapella High Content Imaging and Analysis Software (PerkinElmer). Output: number of amastigotes per cell as infection level measurement.; assay type: functional, organism-based, Rattus norvegicus; settings: H9c2, 4 h
Trypanosoma cruzi [4] = experiment: as §1, with “H2C9” for “Trypanosoma cruzi”, “H9c2 Host Cardiomyocytes.” for “Infected Cells.”, “Number” for “percentage”, “H9c2 Host Cardiomyocytes nuclei to determine drug-related cytotoxicity.” for “infected cells per well as a second infection marker.”; assay type: functional, organism-based, Rattus norvegicus; settings: H9c2, 4 h
Leishmania donovani [5] = experiment: GSK_TCAKS: pIC50 Leishmania donovani viability assay using fluorescence intensity. Assay plates (1536-well) were prepared by adding 30nL per well of compound. For single shot assay, the final compound concentration was 5uM. […] Briefly, eGFP LdBOB axenic amastigotes were harvested, fixed and counted in a CASY cell counter (Roche-Applied Science). A final concentration of 1.5 * 10^5 cells per well were prepared in amastigote media containing 500 U/mL penicillin/streptomycin (Invitrogen) and 6uL was dispensed to each experimental well using a Multidrop Combi dispenser (Thermo Scientific). 6uL of assay media was dispensed to control columns used as reference for 100% compound response. Following incubation for 72 h at 37C, 5% CO2, 2 uL of resazurin was added to each well at a final concentration of 0.5 mM in phosphate buffered saline (PBS) with IGEPAL (Sigma-Aldrich), 0.05% (v/v).; assay type: functional, organism-based
Leishmania donovani [6] = experiment: (§2) GSK_TCAKS: pIC50 Leishmania donovani Imaging: Infected Macrophages. Assay plates (384-well) were prepared by adding 250nL of compound to each well. For single shot assay, the final compound concentration was 5 uM. […] Automated image analysis was performed with a script developed on Acapella High Content Imaging and Analysis Software (PerkinElmer). Output: Percent of infected macrophage cells were reported for each well.; assay type: functional, organism-based, Homo sapiens; settings: THP-1
Leishmania donovani [7] = experiment: as §2, with “Amastigotes/Macrophages.” for “Infected Macrophages.”, “Average number” for “Percent”, “amastigotes per” for “infected”, “cell” for “cells”; assay type: functional, organism-based, Homo sapiens; settings: THP-1
Leishmania donovani [8] = experiment: as §2, with “THP-1 Host” for “Infected”, “THP-1 cell count” for “Percent of infected macrophage cells”; assay type: functional, organism-based, Homo sapiens
[9] = test system: Trypanosoma brucei brucei; experiment: GSK_TCAKS: pIC50 Trypanosoma brucei viability assay using fluorescence intensity. Assay plates (1536-well) were prepared by dispensing 25nL of compound solution per well using an Echo acoustic dispenser (Labcyte).; assay type: functional, organism-based; settings: Lister 427, 2 h
[10] = test system: Trypanosoma brucei brucei; experiment: GSK_TCAKS: pIC50 Trypanosoma brucei viability assay using luminiscence. Assay plates (1536-well) were prepared. T. brucei cultures were harvested and counted in a CASY cell counter. A parasite suspension was prepared at a final concentration of 5 * 10^4 cells/mL in complete HMI9 medium and 6uL was dispensed to all wells containing compounds using a Multidrop Combi dispenser. 6uL of HMI9 media with 0.4% DMSO were dispensed to control columns. Plates were incubated for 24 h at 37C, 5% CO2 then tempered for 10 min at room temperature. ATP content was quantified by adding 4 uL of CellTiter-Glo Reagent (Promega) according to the manufacturer's instructions. Luminescence was measured using a ViewLux.; assay type: functional, organism-based; settings: Lister 427, CASY
[11] = GSK_TCAKS: pIC50 HepG2 human cell line viability assay using luminiscence. […] Seeding density was checked to ensure that new mono-layers were not more than 50% confluent at the time of harvesting. Cell suspension was added to 500 mL of the same medium at a final density of 1.2 * 10^5 cells/mL. This cell suspension was dispensed (25 uL, 3000 cells per well) into 384-well clear-bottom plates using a Multidrop Combi dispenser. Prior to addition of the cell suspension, the screening compounds (250 nL) were pre-dispensed into the plates with an Echo liquid handler. Plates were incubated for 48 h at 37C, 5% CO2. After incubation, plates equilibrated at room temperature for 30 min before proceeding to develop the luminescent signal. The signal developer, CellTiter-Glo Reagent, was allowed to equilibrate at room temperature for 30 min and added to the plates (25uL per well) using a Multidrop Combi dispenser. Plates were left for 10 min at room temperature for stabilization and then read using a ViewLux.; assay type: toxicity, cell-based
[12] = target: Sterol 14-alpha demethylase (Trypanosoma cruzi (strain CL Brener), UniProt Q7Z1V1); experiment: GSK_TCAKS: pIC50 CYP51 from Trypanosoma cruzi.; assay type: functional
Sequence of Sterol 14-alpha demethylase (Q7Z1V1 whole entry): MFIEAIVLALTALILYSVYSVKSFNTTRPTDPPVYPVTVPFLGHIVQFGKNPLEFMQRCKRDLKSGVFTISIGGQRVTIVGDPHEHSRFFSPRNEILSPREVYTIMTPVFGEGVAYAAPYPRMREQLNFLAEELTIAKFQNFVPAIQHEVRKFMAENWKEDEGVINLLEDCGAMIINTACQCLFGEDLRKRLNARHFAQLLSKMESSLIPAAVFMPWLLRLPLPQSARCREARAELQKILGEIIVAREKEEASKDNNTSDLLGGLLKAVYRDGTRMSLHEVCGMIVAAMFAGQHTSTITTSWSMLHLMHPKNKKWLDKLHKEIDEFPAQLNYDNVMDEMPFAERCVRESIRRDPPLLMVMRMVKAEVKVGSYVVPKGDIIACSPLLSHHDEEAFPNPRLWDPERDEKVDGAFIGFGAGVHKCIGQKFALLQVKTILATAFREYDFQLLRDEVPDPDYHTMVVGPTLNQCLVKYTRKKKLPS

Row | Compound | IC50 (Trypanosoma cruzi [1]) [µM] | IC50 (Trypanosoma cruzi [2]) [µM] | IC50 (Trypanosoma cruzi [3]) [µM] | IC50 (Trypanosoma cruzi [4]) [µM] | IC50 (Leishmania donovani [5]) [µM] | IC50 (Leishmania donovani [6]) [µM] | IC50 (Leishmania donovani [7]) [µM] | IC50 (Leishmania donovani [8]) [µM] | IC50 [9] [µM] | IC50 [10] [µM] | IC50 at 48 h [11] [µM] | IC50 [12] [µM]
1 | CCCCN(C(=O)c1ccc(NC(=O)C(C)C)cc1)c1ccccc1 | 20 | > 50.1 | 10 | > 50.1 | 1 | 5.01 | 3.16 | > 50.1 | 15.8 | > 39.8 | > 100 | 12.6
2 | CN1CCC(N(C)c2nccc(N3CCN(C(=O)c4cccc(-c5cccnc5)c4)CC3)n2)CC1 | 0.316 | 1.26 | 1 | 7.94 | > 50.1 | 1.26 | 1.26 | 7.94 | 0.794 | 1 | 39.8 | 1.58
3 | CC(C)c1sc(Cl)nc1C(=O)NCCc1nc(C(=O)Nc2ccc3c(c2)OCO3)cs1 | 4.47 | 1 | 0.631 | > 50.1 | 3.98 | 5.01 | 2.51 | > 50.1 | 25.1 | 25.1 | > 100 | 7.94
4 | Cc1cc(N2CCc3ccccc3C2)nc(Nc2ccc(S(=O)(=O)N3CCOCC3)cc2)n1 | > 50.1 | > 50.1 | 25.1 | > 50.1 | 3.16 | 5.01 | 1.58 | 25.1 | 31.6 | > 39.8 | > 100 | > 100
5 | N#Cc1cccc(Nc2nccc(N3CCC(NS(=O)(=O)c4cccc(C#N)c4)CC3)n2)c1 | 1.58 | 7.94 | 3.16 | 31.6 | 0.631 | 10 | 6.31 | > 50.1 | 6.31 | 6.31 | 50.1 | 7.94
6 | CCC(CC)C(=O)Nc1ccc(-c2nnc(-c3ccc(OC)cc3)o2)cc1 | 5.01 | 12.6 | 3.98 | > 50.1 | > 50.1 | > 50.1 | > 50.1 | > 50.1 | 0.501 | 0.501 | > 100 | 12.6
7 | Cc1nn2c(=O)c3c([nH]c2c1-c1ccc(Cl)cc1)CCCC3 | 0.398 | 1 | 0.251 | > 50.1 | 1.26 | > 50.1 | > 50.1 | 12.6 | 0.158 | 0.316 | > 100 | > 100
8 | O=C(N[C@H](CO)c1ccccc1)c1ccc(-c2c[nH]c3nccc(C(F)(F)F)c23)s1 | 7.94 | 10 | 10 | 12.6 | 31.6 | 25.1 | 15.8 | 12.6 | 0.158 | 0.398 | 63.1 | 6.31
9 | O=C(CCc1ccc(-c2ccccc2)o1)N1CCN(c2ccc(O)cc2)CC1 | 3.16 | 1.26 | 0.794 | > 50.1 | 10 | 3.98 | 1.26 | > 50.1 | 25.1 | 39.8 | > 100 | 2.51
10 | COc1cnc2ccc(=O)n(CCN3CCC(NC(=O)Cc4ccc(Cl)c(Cl)c4)CC3)c2c1 | 0.316 | 0.398 | 0.158 | 6.31 | 5.01 | 39.8 | 5.01 | 25.1 | 0.251 | 0.501 | 63.1 | 0.794
11 | O=C(CN1CCN(c2ccccn2)CC1)Nc1cc(S(=O)(=O)N2CCCCCC2)ccc1Cl | 10 | 7.94 | 6.31 | > 50.1 | 7.94 | 6.31 | 1.26 | 50.1 | 12.6 | 25.1 | > 100 | 3.16
12 | CC(C)COC(=O)Nc1ccc(N2CCC(CNS(=O)(=O)c3ccccc3)CC2)c(F)c1 | 10 | 7.94 | 7.94 | > 79.4 | 3.98 | 2 | 1.26 | > 50.1 | 2.51 | 20 | > 100 | 2
13 | Cn1c(CC(=O)NNC(=O)c2ccc3ccccc3n2)nc2ccccc21 | 3.16 | 5.01 | 6.31 | > 50.1 | 6.31 | 1.26 | 0.794 | > 50.1 | 7.94 | 6.31 | > 100 | 31.6
14 | O=C(NNC(=O)c1ccccn1)c1ccc(-c2ccccc2)cc1 | 1.58 | 1.58 | 1.26 | 2 | 3.16 | 6.31 | 3.16 | 3.16 | 0.316 | 0.631 | > 100 | 31.6
15 | COc1ccc(C(=O)Nc2ccc(NC(=O)CO)cc2)cc1 | > 50.1 | > 50.1 | > 50.1 | > 50.1 | > 50.1 | > 50.1 | > 50.1 | 20 | 0.251 | 0.251 | > 100 | > 100
16 | CN(C)S(=O)(=O)c1ccc(Cl)c(C(=O)Nc2nc(-c3ccccn3)cs2)c1 | 1.58 | 2 | 1.26 | 6.31 | 2 | 10 | 5.01 | 6.31 | 0.501 | 0.398 | > 100 | 31.6
17 | Cc1nc(C(=O)Nc2ccc3c(c2)OCO3)nn1-c1ccc(Cl)cc1 | 6.31 | 1.58 | 1 | > 50.1 | 2.51 | 2 | 1.58 | 12.6 | > 39.8 | > 39.8 | > 100 | 31.6
